Active and inactive are the calls of the source. No cut-off for these calls is given here.
Columns and labels:
[1] = target: T1, Ectonucleotide pyrophosphatase/phosphodiesterase family member 1 (Homo sapiens, UniProt P22413); test: Inhibition of recombinant human ENPP1 transfected in HEK293T cells using cGAMP as substrate at pH 7.5 measured after 3.5 hrs by luminescence based AMP-glo assay; format: cell-based
T1 sequence (P22413 whole entry): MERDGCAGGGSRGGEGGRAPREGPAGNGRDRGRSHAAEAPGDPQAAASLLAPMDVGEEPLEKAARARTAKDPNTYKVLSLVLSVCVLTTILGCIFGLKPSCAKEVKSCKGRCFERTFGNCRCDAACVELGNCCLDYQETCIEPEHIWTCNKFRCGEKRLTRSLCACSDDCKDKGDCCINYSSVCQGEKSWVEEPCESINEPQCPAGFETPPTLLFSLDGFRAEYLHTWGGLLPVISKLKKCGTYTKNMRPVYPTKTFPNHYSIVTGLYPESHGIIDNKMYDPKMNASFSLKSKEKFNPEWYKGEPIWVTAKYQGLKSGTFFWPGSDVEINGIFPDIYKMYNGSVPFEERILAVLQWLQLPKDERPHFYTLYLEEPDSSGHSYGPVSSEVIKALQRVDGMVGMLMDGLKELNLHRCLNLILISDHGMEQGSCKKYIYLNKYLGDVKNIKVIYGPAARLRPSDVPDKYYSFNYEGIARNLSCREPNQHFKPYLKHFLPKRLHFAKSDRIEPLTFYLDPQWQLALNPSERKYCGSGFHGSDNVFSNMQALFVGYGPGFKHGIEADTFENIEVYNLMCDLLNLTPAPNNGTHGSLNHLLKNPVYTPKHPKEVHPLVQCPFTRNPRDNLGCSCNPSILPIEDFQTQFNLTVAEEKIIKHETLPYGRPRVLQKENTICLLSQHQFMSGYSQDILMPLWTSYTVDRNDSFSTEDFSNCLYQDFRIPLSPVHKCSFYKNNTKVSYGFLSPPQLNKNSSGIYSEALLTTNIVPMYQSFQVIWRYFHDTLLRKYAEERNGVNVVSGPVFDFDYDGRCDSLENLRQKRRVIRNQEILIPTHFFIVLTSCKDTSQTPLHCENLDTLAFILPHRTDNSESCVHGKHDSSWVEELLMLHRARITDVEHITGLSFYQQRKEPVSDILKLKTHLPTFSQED

[2] = target: T1, Ectonucleotide pyrophosphatase/phosphodiesterase family member 1; test: Inhibition of ENPP1 in human MDA-MB-231 cells using p-NPh-5TMP as substrate at pH 9.5 measured after 60 mins; format: cell-based
[3] = MRT (0 to t) in Sprague-Dawley rat at 10 mg/kg, iv measured upto 24 hrs by LC-MS/MS analysis; format: ADME, organism-based; settings: in vivo
[4] = Toxicity in female BALB/c mouse allografted with mouse CT26 cells assessed as change in body weight at 200 mg/kg QD, po measured every 2 days for 12 days; format: organism-based; settings: in vivo, 288 h, time 12 day
THP1-Dual [5] = test: Cytotoxicity against human THP1-Dual cells assessed as effect on cell viability at 10 to 1000 nM pretreated with compound in serum-free medium for 36 hrs in presence of cGAMP followed by replacement with condition medium and measured after 24 hrs by celltiter-glo assay; format: functional, cell-based; settings: dose 10-1000 nM, time 60.0 hrs
THP1-Dual KO-STING [6] = test: Cytotoxicity against human THP1-Dual KO-STING cells assessed as effect on cell viability at 1 uM followed by addition of conditioned medium containing 36 hrs compound pretreated human MDA-MB-231 cells measured after 24 hrs by celltiter-glo assay; format: functional, cell-based; settings: time 60.0 hrs
[7] = Half life in Sprague-Dawley rat at 10 mg/kg, iv measured upto 24 hrs by LC-MS/MS analysis; format: ADME, organism-based; settings: in vivo
CT26 = test: Antitumor activity against mouse CT26 cells allografted in female BALB/c mouse assessed as tumor growth inhibition at 200 mg/kg QD, po measured every 2 days for 12 days relative to control; format: functional; settings: CT26, 288 h, time 12 day, read-out: TGI
[8] = Apparent permeability across basal to apical side in human Caco-2 cells at 10 uM by LC-MS/MS analysis; format: ADME, cell-based
[9] = AUC(0 to t) in Sprague-Dawley rat at 10 mg/kg, iv measured upto 24 hrs by LC-MS/MS analysis; format: ADME, organism-based; settings: in vivo
[10] = target: T1, Ectonucleotide pyrophosphatase/phosphodiesterase family member 1; test: Inhibition of ENPP1 in human MDA-MB-231 cells using p-NPh-5TMP as substrate at pH 8.5 measured after 60 mins; format: cell-based
[11] = Apparent permeability across apical to basal side in human Caco-2 cells at 10 uM by LC-MS/MS analysis; format: ADME, cell-based
[12] = Clearance in Sprague-Dawley rat at 10 mg/kg, iv measured upto 24 hrs by LC-MS/MS analysis; format: ADME, organism-based; settings: in vivo
[13] = Cmax in Sprague-Dawley rat at 10 mg/kg, iv measured upto 24 hrs by LC-MS/MS analysis; format: ADME, organism-based; settings: in vivo
THP1-Dual [14] = test: Activation of STING-mediated immune response in human THP1-Dual cells assessed as increase in cGAMP-induced ISRE activation by measuring type 1 IFN response at 10 to 1000 nM preincubated in conditioned medium containing 36 hrs compound treated with human MDA-MB-231 cells measured after 24 hrs by quanti-luc luciferase assay; format: cell-based; settings: filed as activator, dose 10-1000 nM, time 60.0 hrs
[15] = Efflux ratio of apparent permeability from basolateral to apical side over apical to basolateral side in human Caco-2 cells at 10 uM by LC-MS/MS analysis; format: ADME, cell-based
[16] = target: Voltage-gated inwardly rectifying potassium channel KCNH2 (Homo sapiens, UniProt Q12809); test: Inhibition of hERG expressed in CHO cells by QPatch automated patch-clamp assay; format: toxicity, cell-based
Chain of Voltage-gated inwardly rectifying potassium channel KCNH2 (Q12809 whole entry): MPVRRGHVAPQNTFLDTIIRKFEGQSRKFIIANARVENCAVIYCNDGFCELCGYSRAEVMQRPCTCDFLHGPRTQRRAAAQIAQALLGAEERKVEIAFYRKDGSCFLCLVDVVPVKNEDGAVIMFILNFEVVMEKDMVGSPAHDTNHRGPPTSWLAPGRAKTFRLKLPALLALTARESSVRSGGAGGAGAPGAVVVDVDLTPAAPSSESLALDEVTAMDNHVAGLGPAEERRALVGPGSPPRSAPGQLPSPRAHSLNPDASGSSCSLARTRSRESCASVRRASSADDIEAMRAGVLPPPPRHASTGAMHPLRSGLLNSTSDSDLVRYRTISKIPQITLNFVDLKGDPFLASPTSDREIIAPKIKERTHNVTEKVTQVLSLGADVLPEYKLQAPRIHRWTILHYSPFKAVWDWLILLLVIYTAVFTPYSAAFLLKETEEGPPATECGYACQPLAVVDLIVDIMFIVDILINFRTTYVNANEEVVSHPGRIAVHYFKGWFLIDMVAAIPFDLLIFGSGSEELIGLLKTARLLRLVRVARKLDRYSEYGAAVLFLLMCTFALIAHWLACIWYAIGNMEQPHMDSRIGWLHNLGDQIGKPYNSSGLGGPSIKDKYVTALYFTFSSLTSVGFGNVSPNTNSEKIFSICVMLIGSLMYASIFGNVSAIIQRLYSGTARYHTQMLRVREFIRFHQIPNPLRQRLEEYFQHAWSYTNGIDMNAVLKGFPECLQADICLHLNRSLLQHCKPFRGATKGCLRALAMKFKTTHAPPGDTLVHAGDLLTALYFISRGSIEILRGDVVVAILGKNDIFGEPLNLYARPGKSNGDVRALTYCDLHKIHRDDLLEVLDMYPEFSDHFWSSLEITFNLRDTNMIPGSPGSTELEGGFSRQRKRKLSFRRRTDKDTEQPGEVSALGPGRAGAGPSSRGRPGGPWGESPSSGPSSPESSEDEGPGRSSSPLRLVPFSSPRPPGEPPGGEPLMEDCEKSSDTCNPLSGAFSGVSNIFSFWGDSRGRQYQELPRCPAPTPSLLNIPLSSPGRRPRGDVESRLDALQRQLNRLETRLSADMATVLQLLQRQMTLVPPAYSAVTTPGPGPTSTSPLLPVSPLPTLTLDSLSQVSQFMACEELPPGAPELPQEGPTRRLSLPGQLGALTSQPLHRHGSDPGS

THP-1 = test: Activation of STING signalling pathway in human THP-1 cells assessed as increase in IFNB1 expression at 10 to 1000 nM measured after 18 hrs in presence of cGAMP by qPCR analysis; format: cell-based; settings: filed as activator, dose 10-1000 nM
THP1-Dual KO-STING [17] = test: Activation of STING-mediated immune response in human THP1-Dual KO-STING cells assessed as cGAMP-induced ISRE activation at 1 uM preincubated with conditioned medium containing 36 hrs compound treated with human MDA-MB-231 cells and measured after 24 hrs by quanti-luc luciferase assay; format: cell-based; settings: filed as activator, time 60.0 hrs
[18] = target: T1, Ectonucleotide pyrophosphatase/phosphodiesterase family member 1; test: Binding affinity to human ENPP1 assessed as inhibition constant
THP1-Dual [19] = test: Activation of STING-mediated immune response in human THP1-Dual cells assessed as increase in cGAMP-induced ISRE activation preincubated in conditioned medium containing 36 hrs compound treated with human MDA-MB-231 cells measured after 24 hrs by quanti-luc luciferase assay; format: cell-based; settings: filed as activator, time 60.0 hrs

Row | SMILES | IC50 [1] [nM] | IC50 [2] [nM] | other results
1 | COc1cccc2c(N3CCC4(CC3)CC(NS(N)(=O)=O)CO4)c(C#N)cnc12 (stereo unspecified) | 572 | > 1000 | –
2 | COc1cccc2c(NC3CCC(NS(N)(=O)=O)CC3)ncnc12 (stereo unspecified) | 156 | > 1000 | –
3 | COc1cccc2c(N3CCC4(CC3)CC4NS(N)(=O)=O)c(C#N)cnc12 (stereo unspecified) | 23.7 | 6.2 | –
4 | COc1cccc2c(NC34CC(NS(N)(=O)=O)(C3)C4)c(C#N)cnc12 | 6.22 | 10.3 | –
5 | COc1cccc2c(NC3CCC(NS(N)(=O)=O)CC3)c(C#N)cnc12 (stereo unspecified) | 40.3 | 8.62 | –
6 | Cn1nc(Cc2ccc(NS(N)(=O)=O)cc2)c2ccccc2c1=O | 1380 | 556 | MRT last at 24 h [3]: 2.92 h; Activity [4]: Non-toxic; Activity (THP1-Dual [5]): Active; Activity (THP1-Dual KO-STING [6]): Active; half-life [7]: 3.24 h; inhibition in vivo at 200 mg/kg (CT26): 39.4%; Papp B→A at 10 µM [8]: 23.2 ×10⁻⁶ cm/s; AUC(0-t) at 24 h [9]: 27900 ng·h/mL; IC50 [10]: 4560 nM; Papp A→B at 10 µM [11]: 6.06 ×10⁻⁶ cm/s; clearance [12]: 6.18 mL/min/kg; Cmax [13]: 11400 ng/mL; Activity (THP1-Dual [14]): Active; efflux ratio at 10 µM [15]: 3.82
7 | COc1cccc2c(N3CCC(C#N)(CNS(N)(=O)=O)CC3)c(C#N)cnc12 | 6.65 | 0.97 | IC50 [16]: > 40000 nM; Activity (THP-1): Active
8 | COc1cccc2c(N3CCC4(CC3)CC(NS(N)(=O)=O)C4)ncnc12 | 455 | > 1000 | –
9 | COc1cccc2c(N3CC4CC3CC4CNS(N)(=O)=O)c(C#N)cnc12 (stereo unspecified) | 55.5 | 23.2 | –
10 | COc1cccc2c(N[C@H]3CC[C@H](CNS(N)(=O)=O)CC3)c(C#N)cnc12 | > 1000 | > 1000 | –
11 | COc1cccc2c(NC34CC(NS(N)(=O)=O)(C3)C4)ncnc12 | 95.1 | > 1000 | –
12 | COc1cccc2c(NC3CC(NS(N)(=O)=O)C3)ncnc12 (stereo unspecified) | 438 | > 1000 | –
13 | COc1cccc2c(N3CCC(O)(CCNS(N)(=O)=O)CC3)ncnc12 | 305 | 154 | –
14 | COc1cccc2c(N[C@H]3CC[C@H](NS(N)(=O)=O)CC3)ncnc12 | 370 | > 1000 | –
15 | COc1cccc2c(N3CCC(CCP(=O)(O)O)CC3)ncnc12 | 0.5 | 50.1 | MRT last at 24 h [3]: 0.39 h; Activity (THP1-Dual KO-STING [17]): Active; Activity (THP1-Dual [5]): Active; Activity (THP-1): Active; Activity (THP1-Dual KO-STING [6]): Active; half-life [7]: 0.878 h; Papp B→A at 10 µM [8]: 0.394 ×10⁻⁶ cm/s; AUC(0-t) at 24 h [9]: 1780 ng·h/mL; IC50 [10]: 15 nM; Papp A→B at 10 µM [11]: 0.118 ×10⁻⁶ cm/s; clearance [12]: 94 mL/min/kg; Ki [18]: < 2 nM; Activity (THP1-Dual [19]): Dose-dependent-effect; Cmax [13]: 4800 ng/mL; efflux ratio at 10 µM [15]: 3.34
16 | COc1cccc2c(N3CCC4(CC(NS(N)(=O)=O)C4)C3)c(C#N)cnc12 (stereo unspecified) | 27.7 | 6.78 | –
17 | COc1cccc2c(N3CCC4(CC3)CC(NS(N)(=O)=O)C4)c(C#N)cnc12 | 373 | > 1000 | –
18 | COc1cccc2c(NC3CC(NS(N)(=O)=O)C3)c(C#N)cnc12 (stereo unspecified) | 53.7 | 16.6 | –
19 | COc1cccc2c(N[C@H]3CC[C@H](CNS(N)(=O)=O)CC3)ncnc12 | > 1000 | > 1000 | –
20 | COc1cccc2c(N3CCC(O)(CNS(N)(=O)=O)CC3)c(C#N)cnc12 | 11.6 | 1.84 | Activity (THP-1): Active
21 | COc1cccc2c(N3CCC4(CC3)CC4NS(N)(=O)=O)ncnc12 (stereo unspecified) | 95.3 | > 1000 | –
22 | COc1cccc2c(N[C@H]3CC[C@@H](NS(N)(=O)=O)CC3)ncnc12 | 27.6 | 42 | –
23 | COc1cccc2c(N[C@H]3CC[C@@H](NS(N)(=O)=O)CC3)c(C#N)cnc12 | 18 | 10.7 | –
24 | COc1cccc2c(N3CCC(C)(CNS(N)(=O)=O)CC3)ncnc12 | 10.2 | 4.41 | –
25 | COc1cccc2c(N3CCC(F)(CNS(N)(=O)=O)CC3)ncnc12 | 14.9 | 2.88 | –
26 | COc1cccc2c(N3CCC(C)(CNS(N)(=O)=O)CC3)c(C#N)cnc12 | 3.84 | 1.07 | IC50 [16]: > 40000 nM; Activity (THP-1): Active
27 | COc1cccc2c(N3CCC4(CC(NS(N)(=O)=O)C4)C3)ncnc12 (stereo unspecified) | 14.9 | 5.06 | –
28 | COc1cccc2c(N3CCC(F)(CNS(N)(=O)=O)CC3)c(C#N)cnc12 | 3.28 | 1.23 | Activity (THP-1): Active

From ChEMBL document CHEMBL6114998, “Design, Synthesis, and Pharmacological Evaluation of Quinazoline and Quinoline Derivatives as Potent ENPP1 Inhibitors for Cancer Immunotherapy” (J Med Chem, 2025)
